The record followed here is patent US12685743B2, “Methods and compositions for treating and diagnosing pancreatic cancers” (New York University, priority 2019, dated 2026).

In test [1] the test system is oncogenic progression in KC mice (p48cre;LSL-KrasG12D). Put plainly: KC mouse model of slowly progressive PDA, mycobiome ablation. Conditions: oral amphotericin B vs vehicle, killed at three months old (FIG. 3A). The class given is in vivo. An excerpt:
(§1) Littermates were used as controls.

The subject of test [2] is orthotopic tumors from KPC mice. Kind of test: Orthotopic KPC tumors in MBL-null mice. Conditions: amphotericin B vs vehicle, three weeks (FIG. 8B). The class given is in vivo, mouse.
Excerpt: as §1

The test system of test [3] is orthotopic PDA tumors from KPC mice. Conditions: for progression of orthotopic PDA (tumor weight): wild-type mice, oral antifungal vs vehicle, killed three weeks after tumor implantation (FIG. 3B, 7A).
The test system of test [4] is KPC tumor cells. Put plainly: XTT proliferation assay of KPC tumor cells. Particulars: recombinant mouse C3a 5 nM vs vehicle, serial time points (FIG. 8F). The class given is cell-based.
Excerpt: as §1
In general terms: Formazan colour is commonly taken as a measure of viable cells.

Test [5] has as its system orthotopic tumors from KPC mice. Put plainly: Intratumoral injection of recombinant C3a into orthotopic KPC tumors. The class given is in vivo, mouse. Conditions: single intratumoral injection 40 μg/kg on day 14, tumors collected day 21 (FIG. 4D).
Excerpt: as §1

`C[C@@H]1[C@H](O)[C@@H](C)/C=C/C=C/C=C/C=C/C=C/C=C/C=C/[C@H](O[C@@H]2O[C@H](C)[C@@H](O)[C@H](N)[C@@H]2O)C[C@@H]2O[C@](O)(C[C@@H](O)C[C@@H](O)[C@H](O)CC[C@@H](O)C[C@@H](O)CC(=O)O[C@H]1C)C[C@H](O)[C@H]2C(=O)O` [amphotericin B]: the “oncogenic progression (pancreatic weight, acinar area, ADM/PanIN lesions, fibrosis)” value in test [1] is given as “protected the mice against oncogenic progression”. For the same molecule, in test [2], the “protection against tumor growth in MBL-null mice (tumor weight)” value is “did not provide protection against tumor growth”. Moreover, the “effect on gemcitabine chemotherapy (tumor weight)” value in test [3] (wild-type mice with orthotopic PDA tumors, amphotericin B combined with gemcitabine, three weeks of treatment (FIG. 3C)) is “potentiated the effect of chemotherapy based on gemcitabine”. In test [3], the “progression of orthotopic PDA (tumor weight)” value is on record as “protective against progression”.

As for `OC(Cn1cncn1)(Cn1cncn1)c1ccc(F)cc1F` [fluconazole], the “progression of orthotopic PDA (tumor weight)” value in test [3] is “protective against progression”.

As for “recombinant C3a: recombinant mouse complement fragment C3a (R&D)”, the “proliferation of KPC cells in vitro” value in test [4] is on record as “accelerated the proliferation of KPC cells”. Besides, the “growth of KPC tumors in vivo (change in tumor volume)” value in test [5] is on record as “accelerated”.
